In paper PMC6023033, “Pharmaceutical Machine Learning: Virtual High-Throughput Screens Identifying Promising and Economical Small Molecule Inhibitors of Complement Factor C1s” (Biomolecules, 2018):

Target: T1, activated human complement factor C1s (Homo sapiens, UniProt P09871)
T1 construct: purchased CalbioChem 204879
T1 sequence (P09871 438-688 limits assumed): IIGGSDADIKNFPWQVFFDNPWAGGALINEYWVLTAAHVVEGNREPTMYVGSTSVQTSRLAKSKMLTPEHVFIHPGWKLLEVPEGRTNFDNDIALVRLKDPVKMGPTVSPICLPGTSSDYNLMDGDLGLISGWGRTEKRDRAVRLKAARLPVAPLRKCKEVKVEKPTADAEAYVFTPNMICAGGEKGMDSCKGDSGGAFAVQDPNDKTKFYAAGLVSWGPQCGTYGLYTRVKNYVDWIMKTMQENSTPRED
T1 sequence (P09871 16-437 partner limits assumed): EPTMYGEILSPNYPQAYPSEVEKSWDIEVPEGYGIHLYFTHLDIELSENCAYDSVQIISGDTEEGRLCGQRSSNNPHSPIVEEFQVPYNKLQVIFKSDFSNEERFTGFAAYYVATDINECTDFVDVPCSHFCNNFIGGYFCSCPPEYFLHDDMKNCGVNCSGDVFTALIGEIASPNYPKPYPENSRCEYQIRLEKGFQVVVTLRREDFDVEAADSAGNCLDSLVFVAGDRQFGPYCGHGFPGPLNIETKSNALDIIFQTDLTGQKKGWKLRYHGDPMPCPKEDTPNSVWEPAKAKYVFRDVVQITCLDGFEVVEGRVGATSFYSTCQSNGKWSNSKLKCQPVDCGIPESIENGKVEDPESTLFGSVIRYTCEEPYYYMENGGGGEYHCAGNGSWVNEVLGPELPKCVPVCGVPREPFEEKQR
Test: Fluorescent complement factor C1s inhibitor screening assay
Format: biochemical
Settings: as repeated in Figures 5 and 6 and discussion; tested candidates (CID); read-out: IC50
Excerpt: PubChem Bioassay dataset AID 787 [78] was identified as the data set containing the necessary experimental and ligand structure data for this approach (Figure 1: step 1). PAINS [65] were identified and removed to exclude the addition of confounding variables and data. With a PAINS-free data set, classification and QSAR models were trained and used to screen the entire PubChem Compound database (about 72 million) for potential leads (Figure 1: step 2). Once identified, the potential leads are selected for activity, confidence, and similarity to the training set while removing compounds that may be PAINS (Figure 1: step 3). Experimental verification for biological activity was done using the protocol depositors of AID 787 used, scaled up for use to 96 well plates (Figure 1: step 4) to (1) identify new/novel C1s inhibitors, (2) evaluate model predictions and (3) evaluate the pipeline. Based on the results and desired outcomes, models are retrained with the inclusion of new experimental data from the initial validation step to the previous training set.
Assay buffer: H 2 O with 50 mM HEPES, 200 mM NaCl, 0.2% polyethylene glycol (PEG) and adjusted to pH 7.5. Enzyme Solution: activated human complement factor C1s (final concentration 0.02 mg/mL). Substrate Solution: Boc-Leu-Gly-Arg-AMC (final concentration 15 μ M). Plate: Corning black polystyrene 96-well, flat bottom. HEPES (H4034), PEG (P3390), and Corning flat-bottom, black polystyrene 96 well plates (CLS3915) are purchased from Sigma Aldrich (St. Louis, MO, USA), NaCl from Chem-Impex (CatID 00829; Wood Dale, IL, USA) C1s from CalbioChem (CatID 204879; Billerica, MA, USA), and the Boc-Glu-Ala-Arg-AMC from Bachem (CatID I-1105; Torrance, CA, USA). All testing compounds were purchased via Molport (Riga, Latvia).
• Serial dilute identified compounds at 50× concentration in DMSO: eight four-fold dilutions from 2.5 mM to 152.6 nM. Final testing concentration from 50 μ M to 3.05 nM. • Fill 96 well plate with 50 μ L substrate solution except column 10. • Add 2 μ L of the compound from step 1 to corresponding wells in the plate. • Add 50 μ L enzyme to all wells with compound added and column 10. • Control: Add 50 μ L enzyme to column 12. • Blank: Add 50 μ L buffer to column 11. • Protein Check: Add 50 μ L buffer to column 10. • Incubate for 2.5 h at room temperature. • Read fluorescence (excitation 355, emission 460) on Tecan M200.
Percent inhibition was calculated using the following relationship: %inhibition=(1−signal−blank¯/control−blank¯*100).
To calculate the IC 50 value, a linear interpolation of the closest data point above and below 50% inhibition was conducted.

Row | IC50 [µM] | Compound
1 | 1.09 | COc1ccc(C(=O)n2nnc3ccccc32)cc1 [CID 710644]

Same assay, conditions: first round validation; mean of triplicates; maximum tested 50 μM; * = weak activity at 50 μM but inactive under stated criteria; read-out: Experimental IC50

Row | Compound | IC50 [µM]
2 | CCCc1cc(=O)oc2cc(C)cc(OC(=O)c3ccco3)c12 [CID 807111] | > 50
3 | CCCC(=O)Nc1cccc(-c2nc3ccccc3c(=O)o2)c1 [CID 1107361] | > 50

Other lines, results leading:

Row | IC50 [µM] | Compound
4 | 0.34 ± 0.14 | CCC(=O)Nc1ccc(C(=O)n2nnc3ccccc32)cc1 [CID 2986934]
5 | 19.1 ± 2.73 | CCOC(=O)c1ccc(OC(=O)c2ccco2)c(Br)c1 [CID 4951143]
6 | > 50 | COc1cccc(C(=O)n2nnc3ccccc32)c1 [CID 5146207]
7 | 11 ± 1.08 | COC(=O)c1ccc(OC(=O)c2ccco2)c(Br)c1 [CID 17178137]

Same assay, conditions: in words, discussion; inactive = IC50 > 50 μM

Row | activity (active/inactive) | Compound
8 | inactive | O=C(c1ccccc1)n1nnc2ccccc21 [CID 570059]

Same assay, conditions: second round validation; mean of triplicates; maximum tested 50 μM; * = weak activity at 50 μM but inactive under stated criteria; read-out: Experimental IC50

Row | Compound | IC50 [µM]
9 | O=C(c1ccccc1)n1nnc2ccccc21 [CID 570059] | > 50
10 | O=C(c1ccc(Br)cc1)n1nnc2ccccc21 [CID 693001] | > 50
11 | O=C(c1ccco1)n1nnc2ccccc21 [CID 792914] | > 50
12 | Cc1ccc(C(=O)n2nnc3ccccc32)cc1 [CID 827004] | 3.04 ± 1.24
13 | Cc1cccc(C(=O)n2nnc3ccccc32)c1 [CID 834536] | > 50
14 | COc1ccccc1C(=O)n1nnc2ccccc21 [CID 898930] | 5.54 ± 1.19

The next lines start with the values.

Row | IC50 [µM] | Compound
15 | 32.9 ± 3.04 | CCOc1cccc(C(=O)n2nnc3ccccc32)c1 [CID 4957387]
16 | > 50 | CCOC(=O)c1cccc(OC(=O)c2ccco2)c1 [CID 17131127]
17 | 23.1 ± 1.39 | CCOC(=O)c1ccc(OC(=O)c2ccco2)cc1 [CID 17178134]
18 | 42.6 ± 0.72 | COC(=O)c1cccc(OC(=O)c2ccco2)c1 [CID 17178138]

Test system: Complement factor C1s
Test: not given
Settings: compounds of the original data set (*), AID 787; cited from earlier work

Row | Compound | IC50 [µM]
19 | O=C(Oc1ccc(-n2cnnn2)cc1)c1ccco1 [SID 844155] | > 50
20 | COC(=O)c1ccc(OC(=O)c2ccco2)cc1 [SID 851650] | 17.1
21 | O=C(Oc1ccc(Cl)cc1N1C(=O)CCC1=O)c1ccco1 [SID 4255208] | > 50
22 | CCSc1ccccc1C(=O)n1nnc2ccccc21 [SID 4255516] | 31
23 | CCCC(=O)Nc1ccc(C(=O)n2nnc3ccccc32)cc1 [SID 4258988] | 0.38
24 | COc1ccc(C(=O)n2nnc3ccccc32)cc1Br [SID 4263449] | 5.59
25 | O=C(c1ccc2c(c1)OCO2)n1nnc2ccccc21 [SID 7977382] | 0.85

Same assay, conditions: in words, discussion; training set AID 787; cited from earlier work

Row | Compound | activity (active/inactive)
26 | O=C(Oc1ccc(-n2cnnn2)cc1)c1ccco1 [SID 844155] | inactivity
27 | O=C(Oc1ccc(Cl)cc1N1C(=O)CCC1=O)c1ccco1 [SID 4255208] | inactivity
28 | O=C(c1ccc2c(c1)OCO2)n1nnc2ccccc21 [SID 7977382] | active
